Measurements taken from patent publication US8431888B2, “Electrospray and nanospray ionization of discrete samples in droplet format” (priority 2009, dated 2013).
Read-outs that look alike come from different tables or passages of the source.

Experiments:
[1] = molecular target: T1, acetylcholinesterase (AchE) (Electrophorus electricus, UniProt O42275); experiment: biochemical; format: biochemical; conditions: for AchE inhibition in screen (choline production): compound tested at 100 μM, triplicate, peak area ratio of choline to internal standard; for IC50: 10 inhibitor concentrations, 20 min at room temperature, choline formation, sigmoidal dose-response fit
T1 construct: purchased Sigma (St. Louis, Mo.) Type VI-S (catalogue number not given)
T1 sequence (O42275 24-633): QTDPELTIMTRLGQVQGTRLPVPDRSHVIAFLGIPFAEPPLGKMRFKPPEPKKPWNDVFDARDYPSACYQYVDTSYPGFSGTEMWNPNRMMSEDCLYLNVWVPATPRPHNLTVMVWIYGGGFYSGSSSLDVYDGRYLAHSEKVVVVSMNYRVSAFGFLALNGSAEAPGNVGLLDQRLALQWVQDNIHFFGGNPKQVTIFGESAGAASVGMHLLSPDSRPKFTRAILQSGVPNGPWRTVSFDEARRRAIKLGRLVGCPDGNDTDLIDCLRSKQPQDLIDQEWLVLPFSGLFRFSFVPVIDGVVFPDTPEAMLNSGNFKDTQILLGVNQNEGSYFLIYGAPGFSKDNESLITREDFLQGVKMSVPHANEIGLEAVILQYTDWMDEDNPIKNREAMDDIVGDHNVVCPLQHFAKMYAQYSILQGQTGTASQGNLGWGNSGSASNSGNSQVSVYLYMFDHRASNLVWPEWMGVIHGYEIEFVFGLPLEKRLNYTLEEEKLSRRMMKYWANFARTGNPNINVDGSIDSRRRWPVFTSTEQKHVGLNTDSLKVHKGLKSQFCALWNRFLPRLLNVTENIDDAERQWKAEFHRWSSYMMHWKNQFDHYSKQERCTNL

AchE = conditions: read-out: previously reported IC50, cited from earlier work
[2] = literature values, experimental conditions not identical

| Compound | AchE inhibition in screen (choline production) [1] | IC50 (AchE) | IC50 [1] | IC50 (AchE; [2]) |
| --- | --- | --- | --- | --- |
| C[S+](C)[O-] [DMSO] | some inhibition | – | – | – |
| CC[N+](C)(C)c1cccc(O)c1 [edrophonium] | – | 5.4 µM | 63 ± 11 µM | – |
| CC(C)NCC(O)c1ccc(O)c(O)c1 (centres unmarked) [isoproterenol] | some inhibition | – | – | – |
| CCOC(=O)CC(SP(=S)(OC)OC)C(=O)OCC (centres unmarked) [malathion] | – | – | 480 ± 70 µM | 370 µM |
| CN(C)C(=O)Oc1cccc([N+](C)(C)C)c1 [neostigmine] | – | 0.0113 µM | – | – |
